This note sets out measurements from patent publication US10696623B2, “Phenolic acid derivative compound and use thereof” (DAEBONG LS, LTD, priority 2015, dated 2020).

This test is described as follows: DPPH radical scavenging activity (antioxidant effect). The conditions noted are these: 0.2 mM DPPH in methanol, 10 min at room temperature, absorbance 517 nm; compared with ascorbic acid (FIG. 1). It counts as biochemical. Here is the method:
The 1,1-diphenyl-2-picrylhydrazyl (DPPH) radical scavenging activities of the phenolic acid derivative compounds prepared in Examples 1-5 were measured to evaluate the antioxidant activities of the compounds against free radicals. Ascorbic acid was used as a positive control.
1,1-Diphenyl-2-picrylhydrazyl (DPPH) radical was purchased from Sigma Chemical Co. (USA) and L-ascorbic acid purchased from Sigma (USA) were used for testing.
100 μl of a 0.2 mM DPPH solution in methanol and 100 μl of each of the compounds at different concentrations were prepared in a 96-well plate. After the reaction was allowed to proceed at room temperature for 10 min, the absorbance of each sample was measured at 517 nm.
For orientation: The DPPH test is a chemical assay of radical scavenging.

Molecules are shown by their SMILES.

As to `CCOC(=O)[C@H](Cc1ccccc1)NC(=O)c1cc(O)c(O)c(O)c1` [Example 1, (S)-ethyl-3-phenyl-2-(3,4,5-trihydroxybenzamido)propanoate], the “DPPH radical scavenging activity (antioxidant activity)” value is given as “high activity compared to the control ascorbic acid”.
